Assay results reported in publication PMC12163635, “Synthetic Retinoids for the Modulation of Genomic and Nongenomic Processes in Neurodegenerative Diseases” (ACS Omega, 2025).

Columns and labels:
[1] = test system: Sil-15 cells containing a RARE driving a lacZ reporter; experiment: X-Gal-based RA reporter assay (genomic response); format: cell-based; design: genomic response Emax (±95% CI): unit not given here; details: for genomic response Emax (±95% CI) / EC50: Sil-15 reporter cells; for genomic response Emax (±95% CI): absorbance at 650 nm; for EC50: read-out: genomic response EC50 (±95% CI), overnight, 10^–6 to 10^–14 M; for genomic EC50 compared with ATRA: nonoverlapping 95% CI
Source text: Following chemical design and synthesis, the synthetic retinoid library was screened for genomic and nongenomic biological activities and compared to the response of the endogenous retinoid, ATRA. In these assays, the EC50 value represented the concentration of retinoid that gave half-maximal response (potency), while the E max value represented the maximum response achievable from the retinoid (efficacy).
The transcriptional genomic activity of the retinoids was quantified using Sil-15 cells containing a RARE driving a lacZ reporter. […] Twenty-two of the synthetic retinoids were effective in inducing genomic activity. […] In addition, the retinoids varied in their efficacies.
The Sil-15 cell line was used in the X-gal RA reporter assay described below. The cells were grown in Dulbecco’s modified Eagle’s medium (DMEM) containing 10% fetal bovine serum (FCS) (Invitrogen/Gibco), 0.6% penicillin-streptomycin (Gibco) and 0.8 mg/mL G418 sulfate (Sigma) for selection. They were maintained in a humidified atmosphere containing 5% CO2 at 37 °C. The medium was changed three times a week and the cells were passaged at 70% confluence using 0.05% trypsin-EDTA.
Sil-15 cells are F9 teratocarcinoma cells stably transfected with a plasmid containing the LacZ gene under the control of a DR5-type RA response element (RARE). The reporter cell line was used to detect the transcriptional genomic activity of ATRA and other retinoids by colorimetrically quantifying the insoluble blue product generated by β-galactosidase from X-gal during the assay. The assay was performed by plating 100,000 cells per well in the 0.1% gelatin-coated 96-well plates and leaving them to attach overnight. The ATRA/retinoids dilutions ranging from 10^–6 to 10^–14 M were incubated on the reporter cells overnight at 37 °C, in 5% CO2. A standard curve of ATRA was included in each experiment to ensure the reproducibility of the results between assays performed on different days. All the assays for ATRA as well as the retinoids were quantified in triplicate. Serial dilutions of retinoids were prepared from a stock solution under red/orange light. The stock solutions prepared in DMSO for each retinoid varied depending on the solubility of each compound. Each stock was stored at −20 °C and protected from light. The next day, Sil-15 cells were washed with PBS, fixed with 1% glutaraldehyde and 1 mM MgCl2 solution for 15 min, and developed in X-gal developing solution (0.2% X-Gal, 1 mM MgCl2, 3.3 mM potassium ferricyanide and 3.3 mM potassium ferrocyanide in PBS). The plates were read on an E max microplate reader (Molecular Devices) at 650 nm.
(§1) All data are presented as mean ± SEM of three independent experiments with biological triplicates. Statistical analyses were performed in Microsoft Office Excel 2019 or GraphPad Prism 7.0c version (Prism, GraphPad Software, San Diego, CA). Neurite outgrowth data were analyzed by one-way ANOVA with Newman-Keuls multiple comparison test as appropriate; P value <0.05 was considered statistically significant. *P < 0.05, **P < 0.01. Data for X-Gal and ERK1/2 phosphorylation were analyzed using sigmoidal dose–response analysis of log (agonist) versus response curve (stimulation).

[2] = test system: ERK1/2 phosphorylation in SH-SY5Y cells; experiment: ERK1/2 phosphorylation (nongenomic response), AlphaScreen SureFire; format: cell-based, human; details: for EC50: Homo sapiens, read-out: nongenomic response EC50 (±95% CI); for EC50 / nongenomic response Emax (±95% CI): SH-SY5Y cells, 1 h; for nongenomic E max compared with ATRA: nonoverlapping 95% CI
Procedure: After screening the retinoids for genomic responses, they were tested for their nongenomic ability to rapidly phosphorylate ERK1/2 in the SH-SY5Y cell line. ATRA is known as a potent activator of ERK1/2 − and was used as the standard for comparison. […] The efficacies of the remaining seven retinoids were similar to ATRA.
(§2) SH-SY5Y cell line as used in ERK phosphorylation and neurite outgrowth assays described below. The cells were grown in DMEM containing 10% FCS at 37 °C with 5% CO2. The medium was changed three times a week and the cells were passaged at 70% confluence using 0.05% trypsin-EDTA.
To quantify ERK1/2 phosphorylation, SH-SY5Y cells (100,000 cells/well) were plated onto 96-well plates and serum-starved for 24 h in DMEM. Cells were assayed in serum-free DMEM and stimulated for 60 min at 37 °C in a humidified atmosphere. Retinoids were tested at concentrations ranging from 10 to 4 to 10–11 M and at a final concentration of 0.1% DMSO. At the end of the assay, the medium was removed, and cells were lysed with lysis buffer supplied in the AlphaScreen SureFire ERK1/2 kit (PerkinElmer). The assay was performed in 384-well white Proxiplates according to the manufacturer’s instructions and using the beads supplied in the protein A general IgG detection kit (PerkinElmer). Briefly, 4 μL samples were incubated with 7 μL of the freshly prepared mixture containing donor and acceptor beads. Plates were incubated at room temperature and read with the Envision system (PerkinElmer Life Sciences) using AlphaScreen settings.
as §1

SH-SY5Y cells = experiment: Neurite outgrowth; format: cell-based, human; details: 10 nM, 5 days
Procedure: Following the characterization of retinoids for their genomic and nongenomic activities, the ability of retinoids to differentiate and induce neurite outgrowth in the neuroblastoma cell line, SH-SY5Y cells, was examined (Figure ). Neurite outgrowth can be induced in this cell line by ATRA at 10 μM.
as §2
SH-SY5Y cells were plated at 10,000 cells/well in 12-well plates containing 16 mm acid-treated/poly L-lysine-coated glass coverslips. After 24 h, retinoids were added to the medium and tested at two different concentrations, 10 μM and 10 nM, with a final DMSO concentration of 0.01 or 0.0001%, respectively. The plates were incubated for 5 days at 5% CO2/37 °C. All retinoid concentrations were tested in triplicate. Cells were fixed using 4% paraformaldehyde and stained for β-III tubulin (1:1000; Sigma). For each neurite outgrowth experiment, 3 coverslips (in 3 wells) were used. ImageJ software with the NeuronJ plugin was used to quantify neurite outgrowth on stained cells in each of the 10 randomly selected images of each coverslip taken using a Nikon Eclipse E400 fluorescence microscope. The average neurite length was calculated for each image by dividing total neurite length by the total number of neurites per image.
as §1

Row | Compound | genomic response Emax (±95% CI) [1] | EC50 [1] [nM] | EC50 [2] [nM] | nongenomic response Emax (±95% CI) [2] | induction of neurite outgrowth compared with ATRA (SH-SY5Y cells) | genomic EC50 compared with ATRA [1] | nongenomic E max compared with ATRA [2]
1 | CC1=C(/C=C/C(C)=C/C=C/C(C)=C/C(=O)O)C(C)(C)CCC1 [ATRA, all-trans retinoic acid, reference compound] | 170 (±5.65) | 1.04 | 33.1 | 48.6 (±1.85) | does not significantly induce such outgrowth | – | –
2 | COc1cc2c(cc1C#Cc1ccc(C(=O)O)cc1F)C(C)(C)CCC2(C)C [Compound 21, 3-Fluoro-4-[2-(3-methoxy-5,5,8,8-tetramethyl-5,6,7,8-tetrahydronaphthalen-2-yl)ethynyl]benzoic Acid] | – | 5.31 | 90.8 | 36.9 (±2.86) | induced neurite outgrowth but not significantly compared to ATRA | significantly higher EC50 values than ATRA | E max values significantly lower than ATRA
3 | CC1(C)CCC(C)(C)c2cc(C#Cc3ccc(C(=O)O)cc3)ccc21 [EC23, reference compound] | 169 (±10.8) | 0.128 | 30.6 | 92.5 (±6.96) | induced significant neurite outgrowth compared to ATRA | significantly lower EC50 than ATRA | E max values significantly higher than ATRA
